From US20240166658A1, “PORPHYRIN DERIVATIVES AND USES THEREOF” (University of Tasmania, priority 2021, published 2024)

Key:
[1] = Colorimetric matching of mixed PFCA samples, high concentration
From the text: (§1) The present inventors investigated the colorimetric responses for host (12) with “high” concentrations of PFCA (where [host]<[guest]), and “low” concentrations of PFCA (where [host]>[guest]). Generally, RGB response values will increase with increasing concentrations of PFCA until the host has been saturated; beyond the saturation limit, RGB response values are similar. When there was an excess of guest, the response values could only be used as a threshold indication for PFCA concentrations.
(§2) RGB response curves were established by combining solutions of host (12) (5.01×10^−6 M) with solutions of PFOA (0-16 ppm, 3.86×10^−5 M) in dichloromethane. […] Thus, when establishing a calibration curve, the relative proportion of free host to host−PFCA complex limiting the variability of colour response must be considered for the application.
(§3) For the “high” PFCA concentration experiment, the PFOA generated calibration curve (y=0.0401 ln(x)+0.2366, R^2=0.9677) (FIG. 17) begins to level out at ca. 2 ppm. Above that concentration, the RGB response values are difficult to differentiate.

[2] = RGB response, low PFCA concentration
From the text: as §2
(§4) In the “low” PFCA concentration experiment, the RGB response values had the greatest rate of change from 0-40 ppb PFOA and appeared to level out between 40-80 ppb PFOA. In that instance, the regression was fit for a host : guest ratio of 0-0.8. To probe the sensor's response to a mixture of PFCAs, samples containing combinations of PFHxA, PFHpA, and PFDA in dichloromethane (7-28 ppb) were prepared and the RGB responses were collected. The PFCA concentrations for the samples were predicted using the PFOA regression (y=0.0591 ln(x)+0.037, R^2=0.9771).
The RGB response values can differentiate between 0 and 1 ppb PFOA numerically on the regression, but to determine the visual detectability, the ΔE values can be calculated. […] Samples from 0-5 ppb PFOA gave a colour change that could be determined as different from the starting host solution (ΔE=4-8) (Table 11). […] Thus, a conservative visual limit of detection of 10 ppb PFCA may be considered for an untrained observer making threshold analysis.

[3] = RGB response curve, high PFCA concentration; settings: host 5.01×10^−6 M, dichloromethane
From the text: as §1, §2, §3

[4] = Colorimetric matching of mixed PFCA samples, low concentration
Experimental: as §4
The lowest concentration PFCA sample (7 ppb) was predicted to be ca. 11 ppb (58% error) from the PFOA regression, whilst the higher concentration mixed PFCA samples (14.1 and 28.8 ppb) were predicted to be ca. 16 and 23 ppb (17 and 18% error respectively). Thus, host (12) may be coupled with a phone camera to estimate mixed PFCA concentrations from RGB data with <20% error, or used visually for threshold detection of total PFCA concentrations above 10 ppb.

[5] = UV-Vis host-guest titration, association constant; type: binding; settings: host (9) in dichloromethane; triplicate, TBA salt and acid; Bindfit
Experimental: (§5) Path length of the quartz cell was 1 cm. For UV-vis titrations, a stock solution of host was prepared (2.2×10^−3 M) in dichloromethane (DCM) and serially diluted to the required concentrations. Working solutions of tetrabutylammonium (TBA) anion salts or guest molecules were prepared in the same manner Host−guest titrations used solutions of guest prepared in the working concentration of host solution, according to the procedure of Thordarson, 2011.
(§6) UV-vis spectroscopic host−guest titrations were performed in accordance with the methodologies of Thordarson, 2011. Solutions of host in dichloromethane were prepared. Solutions of guest were then prepared in the host solution. Aliquots of guest in host solution were added to host solution and sequentially analysed until a known molar equivalent of guest was added. The amount of guest added per aliquot was ascertained by a preliminary screening experiment; strong association constants required smaller molar equivalents so more information could be collected. By way of example, host (9) responded to 0.1 molar equivalent of PFBA strongly, so an addition of 1 molar equivalent of PFBA would result in a loss of information. The inverse is true for weaker binding interactions. […]
(§7) A host solution of host (9) in dichloromethane was monitored using UV-Vis analysis as 0.5-10 equivalents of each PFAS was added. […]

[6] = UV-Vis host-guest titration, association constant; type: binding; settings: host (9) in dichloromethane; triplicate, TBA salt and acid; Bindfit; remark: listed apart in the source
Experimental: as §5, §6, §7

Soil tests = settings: 5 g dried soil, 20 mL host in dichloromethane, no pre-treatment or pre-concentration
Experimental: Soil was taken front the top 15 cm of the garden bed outside the Chemistry Building at the University of Tasmania and dried in the oven at 40° C. for approximately 60 hours. This soil was then spiked with 10 ppm PFOA: Two 50 g dried soil samples were transferred into two separate 1 L polypropylene containers. One sample was combined with a dichloromethane-PFOA solution (200 mL of 6×10^−6 M PFOA in DCM) and the other was combined with only dichloromethane (200 mL). The solutions were left to evaporate. 5 g of the resulting samples was transferred to high density polyethylene tubes.
Combinations of sensor molecule (9) in different organic solvents were added to spiked and control samples, and the results were compared. Water was also added to see if a biphasic system was beneficial for extraction from soil. • A=20 mL dichloromethane+medium chain sensor (9) • B=10 mL of water-->20 mL dichloromethane+medium chain sensor (9) • C=20 mL ethyl acetate+medium chain sensor (9) • D=20 mL toluene+medium chain sensor (9)
Dried soil samples (5 g) were also combined with 20 mL of host (9) in dichloromethane and shaken to show a colour change observable in the solvent.

## O=C(Nc1ccccc1-c1c2nc(c(-c3ccccc3NC(=O)C(F)(F)C(F)(F)C(F)(F)C(F)(F)C(F)(F)C(F)(F)C(F)(F)C(F)(F)C(F)(F)C(F)(F)C(F)(F)F)c3ccc([nH]3)c(-c3ccccc3NC(=O)C(F)(F)C(F)(F)C(F)(F)C(F)(F)C(F)(F)C(F)(F)C(F)(F)C(F)(F)C(F)(F)C(F)(F)C(F)(F)F)c3nc(c(-c4ccccc4NC(=O)C(F)(F)C(F)(F)C(F)(F)C(F)(F)C(F)(F)C(F)(F)C(F)(F)C(F)(F)C(F)(F)C(F)(F)C(F)(F)F)c4ccc1[nH]4)C=C3)C=C2)C(F)(F)C(F)(F)C(F)(F)C(F)(F)C(F)(F)C(F)(F)C(F)(F)C(F)(F)C(F)(F)C(F)(F)C(F)(F)F [host (12), α,α,α,α-5,10,15,20-tetrakis(2-(tricosafluorododecanoylamino)phenyl) porphyrin]
[1]; 15 vs 3 ppm PFCA sample
  ΔE: 10
[1]; 15 vs 12 ppm PFCA sample
  ΔE: 2
[1]; sample measured 0.20 ppm
  [PFCA]predicted from PFOA regression: 0.18 ppm
[2]; 1.3 ppb PFOA
  ΔE vs host solution: ≥ 2
[2]; PFCA, untrained observer, threshold analysis
  conservative visual limit of detection: 10 ppb
[2]; PFOA 1 ppb
  ΔE (Host − PFCA): 4
[2]; PFOA 3 ppb
  ΔE (Host − PFCA): 6
[2]; PFOA 5 ppb
  ΔE (Host − PFCA): 8
[2]; PFOA 10 ppb
  ΔE (Host − PFCA): 11
[2]; PFOA 21 ppb
  ΔE (Host − PFCA): 12
[2]; PFOA 41 ppb
  ΔE (Host − PFCA): 15
[2]; PFOA 83 ppb
  ΔE (Host − PFCA): 17
[2]; samples from 0-5 ppb PFOA
  ΔE vs starting host solution: 4-8
[3]
  PFOA concentration at which calibration curve begins to level out: ca. 2 ppm
[4]; 7-28 ppb
  average ΔE of mixed PFCA samples vs host solution: > 10
[4]; 7 ppb PFCA sample
  concentration predicted from PFOA regression: ca. 11 ppb
[4]; 14.1 ppb mixed PFCA sample
  concentration predicted from PFOA regression: ca. 16 ppb
[4]; 28.8 ppb mixed PFCA sample
  concentration predicted from PFOA regression: ~23 ppb
[4]; PFCAs 7 ppb
  ΔE (Host − PFCA): 11
[4]; PFCAs 14 ppb
  ΔE (Host − PFCA): 11
[4]; PFCAs 28 ppb
  ΔE (Host − PFCA): 12

## O=C(Nc1ccccc1-c1c2nc(c(-c3ccccc3NC(=O)C(F)(F)C(F)(F)C(F)(F)C(F)(F)C(F)(F)C(F)(F)C(F)(F)F)c3ccc([nH]3)c(-c3ccccc3NC(=O)C(F)(F)C(F)(F)C(F)(F)C(F)(F)C(F)(F)C(F)(F)C(F)(F)F)c3nc(c(-c4ccccc4NC(=O)C(F)(F)C(F)(F)C(F)(F)C(F)(F)C(F)(F)C(F)(F)C(F)(F)F)c4ccc1[nH]4)C=C3)C=C2)C(F)(F)C(F)(F)C(F)(F)C(F)(F)C(F)(F)C(F)(F)C(F)(F)F [host (9), α,α,α,α-5,10,15,20-tetrakis(2-(pentadecafluorooctanoylamino)phenyl)porphyrin]
[5]
  K value (averaged association constant Ka): 392106
[6]
  K value (averaged association constant Ka): 20459
Soil tests
  colour change with soil sample: discernible by the naked eye
